Source: US8529889B2, “Methods and compositions related to the modulation of intercellular junctions” (Massachusetts Institute of Technology, priority 2004, dated 2013)
Entries after “also recorded” stand apart in the source; their conditions may differ.

Experiments:
[1] = tested on: calu-3 human lung adenocarcinoma epithelial cells; assay: Tight junction (ZO-1) and actin filament disruption by immunofluorescence and confocal microscopy, calu-3; assay type: cell-based; details: calu-3 cells
Protocol: (§1) Heparinase III (hep III) was made as described previously (Godavarti R et al., 1996); heparinase I (hep I) was a generous gift from Momenta pharmaceuticals (Cambridge, Mass.); chondroitinase ABC (C-ABC) lyase was purchased from Seikagaku (East Falmouth, Mass.). Hep III was added to the apical side of the cells at a concentration of 10 μg/mL; hep I was added at a concentration of 6 μg/mL, and C-ABC was added at 50 μU/mL. The concentration of ethylene glycol tetra acetic acid (EGTA) (Sigma) used was 5 mM. All the enzymes and the EGTA were made up in serum free Eagle's Minimal Essential medium with 2 mM L-glutamine. Heparin solution was made up to a concentration of 15 mM in serum free media and added to the apical side of the cells after removing the cell medium. Ardeparin sodium and ardeparin calcium powder were added to cells at 6 mg/well, and ardeparin solution was made up to a final concentration of 18 mM.
(§2) Cells grown on glass coverslips were fixed with 10% buffered formalin for 10 min. Cells were then permeabilized with 0.5% Triton-100 (Sigma) in Tris Buffer Saline with 1% Tween-20 (TBST) for 15 min. at room temperature. Nonspecific antibody binding was blocked with 0.1% bovine serum albumin (BSA) for 30 min. at room temperature. The cells were incubated with primary antibody at room temperature for 4 hours and washed 3 times with PBS. The cells were then incubated in the appropriate secondary antibody for 1 hour in the dark at room temperature and washed 3 times with PBS.
Calu-3 cells were seeded on gelatin coated coverslips and were allowed to grow for about 4 to 5 days to about 80% confluency. UFH powder was added to the apical side of the cells using an insufflator to ensure homogenous distribution of the powder on the coverslip.

[2] = tested on: MCF-7 (human mammary cancer) cells; assay: Tight junction disruption in MCF-7 cells; assay type: cell-based
Protocol: as §1, §2

[3] = tested on: caco-2 (human colon adenocarcinoma) cells; assay: Tight junction disruption in caco-2 cells; assay type: cell-based
Protocol: as §1, §2

[4] = tested on: 16HBE14O-human virally transformed bronchial epithelial cells; assay: Tight junction (ZO-1) disruption by immunofluorescence and confocal microscopy, 16HBE14O-; assay type: cell-based; details: 16HBE14O- cells; for disruption of ZO-1 / tight junctions (epithelial permeability): hep III 10 μg/mL, hep I 6 μg/mL, C-ABC 50 μU/mL, EGTA 5 mM, 20 min. at 37° C.
Protocol: as §1, §2
16HBE14O-cells were grown to confluency on fibronectin coated coverslips for 4 to 5 days after seeding. The cells were then incubated with hep III, hep I, C-ABC and EGTA made up to the final concentration described above for 20 min. at 37° C. Using the primary rabbit anti-ZO-1 antibody and the secondary goat anti-rabbit Texas Red antibody, the cells were analyzed by the immunofluorescence and confocal microscopy technique discussed above. […] Localization of the tight junction protein in untreated cells is also shown as a control.

syndecan-1 = assay: Syndecan-1 ectodomain shedding, dot immunoassay, 16HBE14O- cells; assay type: cell-based, human; details: hep III 10 μg/mL, hep I 6 μg/mL, C-ABC 50 μU/mL
Protocol: as §1
(§3) Specificity and quantification of the dot immunoassay for shed syndecan-1 and -4 ectodomains has been previously described in detail (Subramanian et al., 1997). In brief, the conditioned media were diluted in buffer A (0.15 M NaCl buffered to pH 4.5 with 50 mM sodium acetate and with 0.1% Triton X-100) and applied to catonic polyvinylidine diflouride-based membranes (Immobilin-N) (Millipore, Bedford, Mass.) under mild vacuum in an immunodot apparatus (V&P Scientific, San Diego, Calif.). […]
(§4) Detection was by the ECL system (Amersham) as described by the manufacturer. Results were quantified by scanning the exposed membrane with a Kodak Image Station.
(§5) 16HBE14O-cells were grown to about 80% confluency in 6 well plates. […] To evaluate the changes in cell number, the cells were trypsinized and counted with a coulter-counter after incubation. […] The membranes were then incubated in mouse anti-syndecan-1 and in the appropriate secondary antibody and were developed and analyzed as described above. […]

syndecan-4 = assay: Syndecan-4 ectodomain shedding, dot immunoassay, 16HBE14O- cells; assay type: cell-based, human; details: hep III 10 μg/mL, hep I 6 μg/mL, C-ABC 50 μU/mL
Protocol: as §1, §3, §4, §5

Row | Molecule | disruption of ZO-1 / tight junctions (epithelial permeability) [1] | time for cell line to recover from the effect of the treatment [1] | tight junction disruption (epithelial permeability) [2] | time for cell line to recover from the effect of the treatment [2] | tight junction disruption (epithelial permeability) [3] | time for cell line to recover from the effect of the treatment [3] | time for cell line to recover from the effect of the treatment [4] | disruption of ZO-1 / tight junctions (epithelial permeability) [4] | syndecan-1 ectodomain shedding (syndecan-1) | syndecan-4 ectodomain shedding (syndecan-4) | disruption of ZO-1 / tight junctions (epithelial permeability) ([4]; listed as C-ABC) | disruption of ZO-1 / tight junctions (epithelial permeability) ([4]; listed as hep III) | disruption of ZO-1 / tight junctions (epithelial permeability) ([4]; listed as hep I)
1 | O=C(O)CN(CCOCCOCCN(CC(=O)O)CC(=O)O)CC(=O)O [EGTA, ethylene glycol tetra acetic acid, reference compound] | caused a disruption of the junctional complex | about 8 hours | caused a disruption of the junctional complex | about 8 hours | caused a disruption of the junctional complex | about 8 hours | about 8 hours | caused a disruption of the junctional complex; also recorded: cause different amounts of disruption of the tight junctions |  |  |  |  | 
2 | chondroitinase ABC [cABC] | more effect than Hep I |  | Hep III had more effect on tight junction disruption than cABC and Hep I |  | Hep III had more effect on tight junction disruption than cABC and Hep I |  |  | more pronounced effect than Hep III | causes syndecan-1 ectodomain shedding | did not cause an increase in syndecan-4 ectodomain shedding | cause different amounts of disruption of the tight junctions |  | 
3 | heparinase III (protein, UniProt Q59289 25-659, looked up, Glycosaminoglycan-degrading enzyme; cleaves the less/unsulfated, heparan sulfate-like regions) Heparin-sulfate lyase: QSSSITRKDFDHINLEYSGLEKVNKAVAAGNYDDAAKALLAYYREKSKAREPDFSNAEKPADIRQPIDKVTREMADKALVHQFQPHKGYGYFDYGKDINWQMWPVKDNEVRWQLHRVKWWQAMALVYHATGDEKYAREWVYQYSDWARKNPLGLSQDNDKFVWRPLEVSDRVQSLPPTFSLFVNSPAFTPAFLMEFLNSYHQQADYLSTHYAEQGNHRLFEAQRNLFAGVSFPEFKDSPRWRQTGISVLNTEIKKQVYADGMQFELSPIYHVAAIDIFLKAYGSAKRVNLEKEFPQSYVQTVENMIMALISISLPDYNTPMFGDSWITDKNFRMAQFASWARVFPANQAIKYFATDGKQGKAPNFLSKALSNAGFYTFRSGWDKNATVMVLKASPPGEFHAQPDNGTFELFIKGRNFTPDAGVFVYSGDEAIMKLRNWYRQTRIHSTLTLDNQNMVITKARQNKWETGNNLDVLTYTNPSYPNLDHQRSVLFINKKYFLVIDRAIGEATGNLGVHWQLKEDSNPVFDKTKNRVYTTYRDGNNLMIQSLNADRTSLNEEEGKVSYVYNKELKRPAFVFEKPKKNAGTQNFVSIVYPYDGQKAPEISIRENKGNDFEKGKLNLTLTINGKQQLVLVP | more effect than Hep I |  | more effect on tight junction disruption than cABC and Hep I |  | more effect on tight junction disruption than cABC and Hep I |  |  | Hep I and cABC had more pronounced effect than Hep III | causes syndecan-1 ectodomain shedding | did not cause an increase in syndecan-4 ectodomain shedding |  | cause different amounts of disruption of the tight junctions | 
4 | heparinase I (protein, UniProt Q05819 22-384, looked up, Glycosaminoglycan-degrading enzyme; cleaves HSGAGs at the more sulfated, heparin-like regions) Heparin lyase I: QQKKSGNIPYRVNVQADSAKQKAIIDNKWVAVGINKPYALQYDDKLRFNGKPSYRFELKAEDNSLEGYAAGETKGRTELSYSYATTNDFKKFPPSVYQNAQKLKTVYHYGKGICEQGSSRSYTFSVYIPSSFPDNATTIFAQWHGAPSRTLVATPEGEIKTLSIEEFLALYDRMIFKKNIAHDKVEKKDKDGKITYVAGKPNGWKVEQGGYPTLAFGFSKGYFYIKANSDRQWLTDKADRNNANPENSEVMKPYSSEYKTSTIAYKMPFAQFPKDCWITFDVAIDWTKYGKEANTILKPGKLDVMMTYTKNKKPQKAHIVNQQEILIGRNDDDGYYFKFGIYRVGNSTVPVTYNLSGYSETAR | Hep III and cABC had more effect than Hep I |  | Hep III had more effect on tight junction disruption than cABC and Hep I |  | Hep III had more effect on tight junction disruption than cABC and Hep I |  |  | more pronounced effect than Hep III | causes syndecan-1 ectodomain shedding | did not cause an increase in syndecan-4 ectodomain shedding |  |  | cause different amounts of disruption of the tight junctions
